Measurements from PubChem BioAssay AID256 (DTP/NCI, 2004).
“And” between values parts separate entries of the source, which are not always exact repeats. Identical values can stand only once. Inconclusive results and toxic doses are left out.

Tested on: CD2F1 mice, L1210 leukemia ip, survival T/C
Experiment: NCI In Vivo Anticancer Drug Screen. Data for tumor model L1210 Leukemia (intraperitoneal) in CD2F1 (CDF1) mice
Conditions: higher = longer survival
Summary of the method: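 Read-out first: treated-group measurement over vehicle-control measurement, expressed as a ratio. Animals bore a transplanted tumor line and were dosed with compound or vehicle.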

[1] = endpoint: mean survival time, dose: 150.0 mg/kg/injection, schedule: Q01DX001 (ip), vehicle: saline
[2] = endpoint: mean survival time, dose: 25.0 mg/kg/injection, schedule: Q01DX009 (ip), vehicle: saline with Tween-80
[3] = endpoint: mean survival time, dose: 50.0 mg/kg/injection, schedule: Q01DX009 (ip), vehicle: saline with Tween-80
[4] = endpoint: mean survival time, dose: 100.0 mg/kg/injection, schedule: Q04DX002 (ip), vehicle: saline
[5] = endpoint: mean survival time, dose: 200.0 mg/kg/injection, schedule: Q04DX002 (ip), vehicle: saline
[6] = endpoint: mean survival time, dose: 400.0 mg/kg/injection, schedule: Q04DX002 (ip), vehicle: saline
[7] = endpoint: mean survival time, dose: 100.0 mg/kg/injection, schedule: Q01DX009 (ip), vehicle: saline with Tween-80
[8] = endpoint: mean survival time, dose: 200.0 mg/kg/injection, schedule: Q01DX009 (ip), vehicle: saline with Tween-80
[9] = endpoint: mean survival time, dose: 100.0 mg/kg/injection, schedule: Q04DX002 (ip), vehicle: saline with Tween-80
[10] = endpoint: mean survival time, dose: 200.0 mg/kg/injection, schedule: Q04DX002 (ip), vehicle: saline with Tween-80

CCn1cnc2c(=S)nc[nH]c21
T/C (endpoint: mean survival time, dose: 9.4 mg/kg/injection, schedule: Q03HX024 (ip), vehicle: saline): 107 % of control | T/C (endpoint: mean survival time, dose: 15.0 mg/kg/injection, schedule: Q01DX009 (ip), vehicle: saline): 104 % of control | T/C (endpoint: mean survival time, dose: 15.0 mg/kg/injection, schedule: Q03HX008 (ip), vehicle: saline): 121 % of control | T/C (endpoint: mean survival time, dose: 18.8 mg/kg/injection, schedule: Q03HX016 (ip), vehicle: saline): 101 % of control | T/C (endpoint: mean survival time, dose: 30.0 mg/kg/injection, schedule: Q01DX009 (ip), vehicle: saline): 113 % of control | T/C (endpoint: mean survival time, dose: 37.5 mg/kg/injection, schedule: Q03HX024 (ip), vehicle: saline): 156 % of control | T/C (endpoint: mean survival time, dose: 56.3 mg/kg/injection, schedule: Q03HX024 (ip), vehicle: saline): 163 % of control | T/C (endpoint: mean survival time, dose: 60.0 mg/kg/injection, schedule: Q03HX008 (ip), vehicle: saline): 161 % of control | T/C (endpoint: mean survival time, dose: 75.0 mg/kg/injection, schedule: Q03DX003 (ip), vehicle: saline): 101 % of control | T/C (endpoint: mean survival time, dose: 75.0 mg/kg/injection, schedule: Q03HX016 (ip), vehicle: saline): 161 % of control | T/C (endpoint: mean survival time, dose: 75.0 mg/kg/injection, schedule: Q04DX003 (ip), vehicle: saline): 108 % of control and 109 % of control | T/C (endpoint: mean survival time, dose: 120.0 mg/kg/injection, schedule: Q01DX009 (ip), vehicle: saline): 87 % of control | T/C [1]: 115 % of control | T/C (endpoint: mean survival time, dose: 150.0 mg/kg/injection, schedule: Q01DX007 (ip), vehicle: saline): 96 % of control | T/C (endpoint: mean survival time, dose: 150.0 mg/kg/injection, schedule: Q01DX009 (ip), vehicle: saline): 106 % of control | T/C (endpoint: mean survival time, dose: 150.0 mg/kg/injection, schedule: Q03DX003 (ip), vehicle: saline): 112 % of control | T/C (endpoint: mean survival time, dose: 300.0 mg/kg/injection, schedule: Q04DX003 (ip), vehicle: saline): 112 % of control | T/C (endpoint: mean survival time, dose: 300.0 mg/kg/injection, schedule: Q08DX002 (ip), vehicle: saline): 151 % of control | T/C (endpoint: mean survival time, dose: 600.0 mg/kg/injection, schedule: Q08DX002 (ip), vehicle: saline): 105 % of control | T/C (endpoint: median survival time, dose: 12.5 mg/kg/injection, schedule: Q01DX009 (ip), vehicle: saline with Tween-80): 118 % of control | T/C (endpoint: median survival time, dose: 25.0 mg/kg/injection, schedule: Q01DX009 (ip), vehicle: saline with Tween-80): 118 % of control | T/C (endpoint: median survival time, dose: 31.3 mg/kg/injection, schedule: Q01DX009 (ip), vehicle: saline): 100 % of control and 111 % of control | T/C (endpoint: median survival time, dose: 62.5 mg/kg/injection, schedule: Q01DX009 (ip), vehicle: saline): 188 % of control | T/C (endpoint: median survival time, dose: 100.0 mg/kg/injection, schedule: Q01DX009 (ip), vehicle: saline with Tween-80): 183 % of control | T/C (endpoint: median survival time, dose: 125.0 mg/kg/injection, schedule: Q01DX009 (ip), vehicle: saline): 116 % of control | T/C (endpoint: median survival time, dose: 200.0 mg/kg/injection, schedule: Q01DX009 (ip), vehicle: saline with Tween-80): 118 % of control

N#CC(c1cccnc1)N1CCOCC1 (configuration not stated)
T/C [2]: 98 % of control | T/C [3]: 103 % of control

C[N+](C)(C)CC1CS1 (configuration not stated)
T/C (endpoint: mean survival time, dose: 4.5 mg/kg/injection, schedule: Q01DX009 (ip), vehicle: saline sonified): 96 % of control | T/C (endpoint: mean survival time, dose: 4.5 mg/kg/injection, schedule: Q04DX003 (ip), vehicle: saline): 98 % of control | T/C (endpoint: mean survival time, dose: 9.0 mg/kg/injection, schedule: Q01DX009 (ip), vehicle: saline sonified): 94 % of control | T/C (endpoint: mean survival time, dose: 9.0 mg/kg/injection, schedule: Q04DX003 (ip), vehicle: saline): 98 % of control | T/C (endpoint: mean survival time, dose: 18.0 mg/kg/injection, schedule: Q01DX009 (ip), vehicle: saline sonified): 92 % of control | T/C (endpoint: mean survival time, dose: 18.0 mg/kg/injection, schedule: Q04DX003 (ip), vehicle: saline): 95 % of control

CCN1C2CCC1CC(O)C2 (configuration not stated)
T/C [4]: 94 % of control | T/C [5]: 94 % of control | T/C [6]: 105 % of control

COc1ccccc1OCCN1Cc2ccccc2C1
T/C [3]: 94 % of control | T/C [7]: 100 % of control | T/C [8]: 97 % of control

O=C1c2ccccc2C(=O)N1CC(O)CN1C(=O)c2ccccc2C1=O
T/C (endpoint: mean survival time, dose: 50.0 mg/kg/injection, schedule: Q01DX001 (ip), vehicle: other): 98 % of control | T/C (endpoint: mean survival time, dose: 100.0 mg/kg/injection, schedule: Q01DX001 (ip), vehicle: other): 100 % of control | T/C (endpoint: mean survival time, dose: 200.0 mg/kg/injection, schedule: Q01DX001 (ip), vehicle: other): 93 % of control | T/C (endpoint: mean survival time, dose: 400.0 mg/kg/injection, schedule: Q01DX001 (ip), vehicle: other): 94 % of control

N=C(N)SCc1cccc2c(=O)cc(-c3ccccc3)oc12
T/C [2]: 95 % of control | T/C [3]: 96 % of control | T/C [7]: 101 % of control | T/C [8]: 104 % of control | T/C (endpoint: median survival time, dose: 25.0 mg/kg/injection, schedule: Q01DX009 (ip), vehicle: saline): 113 % of control | T/C (endpoint: median survival time, dose: 50.0 mg/kg/injection, schedule: Q01DX009 (ip), vehicle: saline): 113 % of control | T/C (endpoint: median survival time, dose: 100.0 mg/kg/injection, schedule: Q01DX009 (ip), vehicle: saline): 114 % of control | T/C (endpoint: median survival time, dose: 200.0 mg/kg/injection, schedule: Q01DX009 (ip), vehicle: saline): 113 % of control | T/C (endpoint: median survival time, dose: 400.0 mg/kg/injection, schedule: Q01DX009 (ip), vehicle: saline): 97 % of control

CC[S-].CC[S-].[Ni+2]
T/C (endpoint: mean survival time, dose: 5.0 mg/kg/injection, schedule: Q01DX001 (ip), vehicle: saline): 103 % of control | T/C (endpoint: mean survival time, dose: 10.0 mg/kg/injection, schedule: Q01DX001 (ip), vehicle: saline): 103 % of control | T/C (endpoint: mean survival time, dose: 20.0 mg/kg/injection, schedule: Q01DX001 (ip), vehicle: saline): 103 % of control

O=[N+]([O-])C1CC=CCC1C(Cl)(Cl)Cl (configuration not stated)
T/C (endpoint: mean survival time, dose: 5.0 mg/kg/injection, schedule: Q01DX009 (ip), vehicle: saline with Tween-80): 97 % of control | T/C (endpoint: mean survival time, dose: 10.0 mg/kg/injection, schedule: Q01DX009 (ip), vehicle: saline with Tween-80): 103 % of control

Cc1c(-c2ccc(Cl)cc2)nc2cc(Cl)ccc2c1C(=O)O
T/C [4]: 92 % of control | T/C [5]: 88 % of control | T/C [6]: 98 % of control

O=Cc1cccc(OCc2ccc([N+](=O)[O-])cc2)c1
T/C (endpoint: mean survival time, dose: 50.0 mg/kg/injection, schedule: Q01DX009 (ip), vehicle: Klucel (hydroxypropylcellulose) (HPC)): 105 % of control | T/C (endpoint: mean survival time, dose: 100.0 mg/kg/injection, schedule: Q01DX009 (ip), vehicle: Klucel (hydroxypropylcellulose) (HPC)): 108 % of control | T/C (endpoint: mean survival time, dose: 200.0 mg/kg/injection, schedule: Q01DX009 (ip), vehicle: Klucel (hydroxypropylcellulose) (HPC)): 97 % of control

Cc1ccc2c(c1)C(=O)/C(=C/c1ccccn1)CCO2
T/C [9]: 92 % of control | T/C [10]: 88 % of control | T/C (endpoint: mean survival time, dose: 400.0 mg/kg/injection, schedule: Q04DX002 (ip), vehicle: saline with Tween-80): 92 % of control

CC(C)(C)C(CCC(=O)O)CC(=O)O (configuration not stated)
T/C (endpoint: mean survival time, dose: 100.0 mg/kg/injection, schedule: Q04DX003 (ip), vehicle: saline with Tween-80): 97 % of control | T/C (endpoint: mean survival time, dose: 200.0 mg/kg/injection, schedule: Q04DX003 (ip), vehicle: saline with Tween-80): 96 % of control | T/C (endpoint: mean survival time, dose: 400.0 mg/kg/injection, schedule: Q04DX003 (ip), vehicle: saline with Tween-80): 100 % of control

CCOC(=O)c1c2c(n3ccccc13)C(=O)c1ccccc1C2=O
T/C (endpoint: mean survival time, dose: 75.0 mg/kg/injection, schedule: Q01DX001 (ip), vehicle: saline): 97 % of control | T/C [1]: 103 % of control | T/C (endpoint: mean survival time, dose: 300.0 mg/kg/injection, schedule: Q01DX001 (ip), vehicle: saline): 105 % of control

O=C1NCCC/C1=N/Nc1ccccc1
T/C (endpoint: mean survival time, dose: 50.0 mg/kg/injection, schedule: Q04DX002 (ip), vehicle: saline with Tween-80): 100 % of control | T/C [7]: 96 % of control | T/C [9]: 108 % of control | T/C [8]: 96 % of control | T/C [10]: 112 % of control | T/C (endpoint: mean survival time, dose: 400.0 mg/kg/injection, schedule: Q01DX009 (ip), vehicle: saline with Tween-80): 91 % of control

CC(C)C1NC(=O)C2CCCN2C1=O (configuration not stated)
T/C (endpoint: mean survival time, dose: 100.0 mg/kg/injection, schedule: Q01DX009 (ip), vehicle: saline sonified): 98 % of control | T/C (endpoint: mean survival time, dose: 200.0 mg/kg/injection, schedule: Q01DX009 (ip), vehicle: saline sonified): 93 % of control | T/C (endpoint: mean survival time, dose: 400.0 mg/kg/injection, schedule: Q01DX009 (ip), vehicle: saline sonified): 96 % of control

COC(=O)CSc1nn(C2OC(COC(=O)c3ccccc3)C(OC(=O)c3ccccc3)C2OC(=O)c2ccccc2)c(=O)[nH]c1=O (configuration not stated)
T/C (endpoint: mean survival time, dose: 12.5 mg/kg/injection, schedule: Q01DX005 (ip), vehicle: distilled water + Tween-80): 92 % of control | T/C (endpoint: mean survival time, dose: 25.0 mg/kg/injection, schedule: Q01DX005 (ip), vehicle: distilled water + Tween-80): 101 % of control | T/C (endpoint: mean survival time, dose: 50.0 mg/kg/injection, schedule: Q01DX005 (ip), vehicle: distilled water + Tween-80): 93 % of control | T/C (endpoint: mean survival time, dose: 100.0 mg/kg/injection, schedule: Q01DX005 (ip), vehicle: distilled water + Tween-80): 90 % of control | T/C (endpoint: mean survival time, dose: 200.0 mg/kg/injection, schedule: Q01DX005 (ip), vehicle: distilled water + Tween-80): 88 % of control
